Laboratory results from patent publication US10000534B2, “Peptide having osteoblast proliferation activity and periodontal ligament fibroblast proliferation activity, and use of same” (CAREGEN CO., LTD., priority 2014, dated 2018).
Ends that are not written are not given here.

Key:
C2C12 cells = test: MTT assay of cell proliferation in C2C12 cells; type: cell-based; conditions: peptide 10 μg/ml, 72 hours, serum-free, FIGS. 1a and 1b
Procedure: In order to analyze the BMP2-like action of the sequence peptides synthesized in synthesis example 1, MTT assay was conducted using C2C12 cells, which are a myoblast cell line, to investigate the proliferation promoting effect.
The C2C12 cells were cultured in Dulbecco's modified Eagle's medium (DMEM, Gibco) supplemented with 10% fetal bovine serum (FBS, Sigma) using a 500 ml-flask for tissue culture. The cultured cell lines were carefully detached from the bottom of the culture container using a 1% trypsin solution, followed by centrifugation, thereby obtaining only cell precipitates. The cell precipitates were re-suspended in DMEM culture medium supplemented without FBS, and then added to a 96-well plate for tissue culture at 1×10^3 cells per each well, followed by culture under conditions of 37° C. and 5% CO2 for 24 hours. After 24 hours, the medium was changed with the same culture liquid completely excluding serum, and then the blank sample and each of the synthetic peptide were dissolved sterile in distilled water, and the mixture was cultured at a concentration of 10 μg/ml for 72 hours under the same conditions. The MTT sample was added to the culture-completed well, and after 4 hour, the formed formazan was dissolved in DMSO, and then the absorbance was measured at 560 nm to determine cell proliferation.

MC3T3-E1 cells [1] = test: Alkaline phosphatase (ALP) staining of MC3T3-E1 cells (osteoblast differentiation); type: cell-based; conditions: MC3T3-E1, peptide 10 ug/ml and 50 ug/ml, 13 days; FIGS. 2a and 2b
Procedure: In order to analyze the BMP2-like action of the sequence peptides synthesized in synthesis example 1, the osteoblast differentiation promoting effect was investigated through alkaline phosphatase (ALP) staining of MC3T3-E1 cells, which are a pre-osteoblast cell line. The MC3T3-E1 cells were placed in a 24-well plate to 3×10^4 cells, and then cultured for 24 hours under conditions of 37° C. and 5% CO2. After 24 hours, the alpha-MEM medium containing 10% FBS and 50 ug/ml ascorbic acid+100 mM b-glycerophosphate was treated with the synthetic peptides at concentrations of 10 ug/ml and 50 ug/ml, and then the culture was conducted for 13 days while the medium was exchanged every three days. The culture-completed plate well was washed two times with PBS, and then the cells were immobilized with an immobilization buffer, in which acetone, 37% formaldehyde, and citric acid solution were mixed, for 30 seconds. The following staining was carried out using the leukocyte alkaline phosphatase staining kit (SIGMA).
The cells were treated for 2 minutes with an FBB-alkaline solution and a sodium nitrite solution mixed at 1:1, and then treated with a buffer composed of distilled water and naphthol AS-BI alkaline solution, followed by color development in an incubator at 37° C. for 1 hour.

MC3T3-E1 cells [2] = test: RT-PCR of osteogenic differentiation-related genes (BSP, COL1A1) in MC3T3-E1 cells; type: cell-based; conditions: MC3T3-E1, peptide 10 ug/ml and 50 ug/ml, 2 days; FIGS. 3a and 3b
Procedure: In order to investigate the mRNA expression levels of osteogenic differentiation-related genes, bone sialoprotein (BSP) and collagen type I alpha 1 (COL1A1) by the sequence peptides synthesized in synthesis example 1, MC3T3-E1 cells were placed in a 6-well plate to 2×10^5 cells, and then cultured for 24 hours under conditions of 37° C. and 5% CO2. After 24 hours, the medium containing FBS 10% was treated with the respective peptides at 10 ug/ml and 50 ug/ml, and BMP2 used at a positive control at 100 ng/ml. After 2 days, the washing was conducted with PBS, and then RNA was isolated using Easy blue (Intron). cDNA was synthesized using 1 ug of RNA and RT premixture (Intron), and PCR was conducted using PCR premixture (Bioneer), and then the resulting product was loaded on agarose gel to investigate the mRNA expression degree of each gene.

MC3T3-E1 cells [3] = test: Western blotting of pSmad1/5/8 in MC3T3-E1 cells; type: cell-based; conditions: MC3T3-E1, peptide 10 ug/ml, 15 and 30 minutes, FIGS. 4a and 4b
Procedure: In order to investigate whether pSmad1/5/8, which is a signal involved in the promotion of osteogenic differentiation, was activated by the present peptides, MC3T3-E1 cells were placed in a 6-well plate at 2×10^5 cells, and then cultured for 24 hours under the conditions of 37° C. and 5% CO2. After 24 hours, the medium was exchanged with a medium without serum, followed by culture for 24 hours. Then, the resulting product was treated with the respective peptides at 10 ug/ml, and BMP2 used at a positive control at 50 ng/ml. After 15 minutes and 30 minutes, the washing was conducted with PBS, and then a lysis buffer was added to obtain proteins through lysis, followed by western blotting.

[4] = test system: human periodontal ligament fibroblasts; test: SRB assay of human periodontal ligament fibroblast growth; type: cell-based; conditions: peptide 0.05-10 ug/ml, 72 hours, serum-free; FIGS. 6a and 6b
Procedure: In order to investigate the effects of the peptides of SEQ ID NO: 1 and SEQ ID NO: 2 on the periodontium, the human periodontal ligament fibroblast promoting effects were analyzed. The periodontal ligament fibroblasts were placed in a 48-well plate to 1×10^3 cells, and then cultured for 24 hours under conditions of 37° C. and 5% CO2. After 24 hours, the exchange with the medium not containing serum was conducted, followed by culture for 6 hours. Thereafter, the resulting product was treated with the peptides at concentrations of 0.05-10 ug/ml and BMP-2 and IGF-1 used as positive controls at a concentration of 0.2 ug/ml, followed by culture for 72 hours. After the completion of the culture, the culture supernatant was removed and the cells were immobilized using ethanol. After the cell immobilization was ended, the cells were washed three times with phosphate buffer saline (PBS). After the wash solution was removed, the cells were treated with colorimetric SRB solution, and sufficiently washed with 1% acetic acid. Then, the cells were observed using a microscope to observe the conditions of living cells. The absorbance for the solution decolorized with 20 mM tris was read at UV light of 560 nm, thereby measuring the survival conditions of cells.

[5] = test system: human periodontal ligament fibroblasts; test: Western blotting of p-PI3K and p-Akt in periodontal ligament fibroblasts; type: cell-based; conditions: peptide 10 ug/ml, 5-15 minutes, FIGS. 7a and 7b
Procedure: In order to investigate the human periodontal ligament fibroblast growth promoting effects by the peptides of SEQ ID NO: 1 and SEQ ID NO: 2, the phosphorylation degrees of related signaling molecules were analyzed using western blotting. The periodontal ligament fibroblasts were placed in a 6-well plate to 5×10^5 cells, and then cultured for 24 hours under conditions of 37° C. and 5% CO2. Thereafter, the resulting product was treated with the peptides at a concentration of 10 ug/ml and bFGF used as a positive control at a concentration of 0.2 ug/ml. Then, the cells were collected by culture times of 5-15 minutes, and the total proteins were isolated, and then western blotting was conducted with respect to p-PI3K and p-Akt.

[6] = test system: periodontal ligament fibroblasts; test: RT-PCR of COL1A1 and DSPP mRNA in periodontal ligament fibroblasts; type: cell-based, human; conditions: peptide 1 and 10 ug/ml, 72 hours, FIGS. 8a and 8b
Procedure: In order to investigate the periodontal ligament fibroblast activity promoting effects by the peptides of SEQ ID NO: 1 and SEQ ID NO: 2, the mRNA expression of related genes was analyzed using RT-PCR. The periodontal ligament fibroblasts were placed in a 24-well plate to 1.5×10^4 cells, and then cultured for 24 hours under conditions of 37° C. and 5% CO2. After 24 hours, the exchange with the medium not containing serum was conducted, followed by culture for 24 hours. Thereafter, the resulting product was treated with the peptides at concentrations of 1 and 10 ug/ml and BMP-2 and IGF-1 used as positive controls at a concentration of 0.2 ug/ml, followed by culture for 72 hours. After the completion of the culture, the washing was conducted with PBS, and then RNA was isolated using Easy blue (Intron). cDNA was synthesized using 1 ug of RNA and RT premixture (Intron), and PCR was conducted using PCR premixture (Bioneer), and then the resulting product was loaded on agarose gel to investigate the mRNA level of each marker.

Balb/c mouse = test: Collagen sponge transplant in Balb/c mouse, H&E staining of osteocytes permeation and differentiation; type: in vivo; conditions: collagen sponge with 100 ug peptide transplanted into the back, 2 weeks, FIG. 5
Procedure: A collagen sponge with a size of 0.5 mm×0.5 mm was wetted with 100 ug of the peptide of SEQ ID NO: 1, transplanted into the back of the Balb/c mouse, and then left for 2 weeks. Thereafter, the collagen sponge was extracted, and then made into a paraffin block, and then the degree of osteocytes permeation and differentiation in the collagen sponge were measured through H&E staining (FIG. 5).

Row | Sequence | growth of osteoblasts (cell proliferation, MTT, absorbance at 560 nm) (C2C12 cells) | ALP expression (ALP staining) (MC3T3-E1 cells [1]) | mRNA expression levels of osteogenic differentiation genes (BSP, COL1A1) (MC3T3-E1 cells [2]) | phosphorylation of Smad1/5/8 (MC3T3-E1 cells [3]) | periodontal ligament fibroblast cell growth (SRB, absorbance 560 nm) [4] | phosphorylation level of Akt [5] | phosphorylation level of PI3K [5] | mRNA expression level of alpha-1 type I collagen (COL1A1) [6] | mRNA expression level of dentin sialophosphoprotein (DSPP) [6] | bone formation promoting effect (osteocytes permeation, proliferation and differentiation in collagen sponge, H&E) (Balb/c mouse)
1 | FDMGAYKSSK [SEQ ID NO: 2] | significantly promoted the growth of osteoblasts | increase in the ALP expression | increases in the mRNA expression levels | promotion of the phosphorylation of Smad1/5/8 | cell growth increase in a dose-dependent manner | increases in the phosphorylation levels | increases in the phosphorylation levels | increases in the mRNA expression levels | increases in the mRNA expression levels | 
2 | RSLNLRDSQKS [SEQ ID NO: 1] | significantly promoted the growth of osteoblasts | increase in the ALP expression | increases in the mRNA expression levels | promotion of the phosphorylation of Smad1/5/8 | cell growth increase in a dose-dependent manner | increases in the phosphorylation levels | increases in the phosphorylation levels | increases in the mRNA expression levels | increases in the mRNA expression levels | bone formation promoting effect
